Assay results from patent US10259779B2 (WAYNE STATE UNIVERSITY, priority 2016, dated 2019).

Key:
HDAC6 = molecular target: T1, HDAC6 (Homo sapiens, UniProt Q9UBN7); assay: ELISA-based HDAC activity assay, HDAC6; conditions: for HDAC6 fold selectivity HDAC1: HDAC6 over HDAC1; for HDAC6 fold selectivity HDAC1 / HDAC6 fold selectivity HDAC2 / HDAC6 fold selectivity HDAC3: calculated from IC50 values; for HDAC6 fold selectivity HDAC2: HDAC6 over HDAC2; for HDAC6 fold selectivity HDAC3: HDAC6 over HDAC3
T1 sequence (Q9UBN7 1-1215): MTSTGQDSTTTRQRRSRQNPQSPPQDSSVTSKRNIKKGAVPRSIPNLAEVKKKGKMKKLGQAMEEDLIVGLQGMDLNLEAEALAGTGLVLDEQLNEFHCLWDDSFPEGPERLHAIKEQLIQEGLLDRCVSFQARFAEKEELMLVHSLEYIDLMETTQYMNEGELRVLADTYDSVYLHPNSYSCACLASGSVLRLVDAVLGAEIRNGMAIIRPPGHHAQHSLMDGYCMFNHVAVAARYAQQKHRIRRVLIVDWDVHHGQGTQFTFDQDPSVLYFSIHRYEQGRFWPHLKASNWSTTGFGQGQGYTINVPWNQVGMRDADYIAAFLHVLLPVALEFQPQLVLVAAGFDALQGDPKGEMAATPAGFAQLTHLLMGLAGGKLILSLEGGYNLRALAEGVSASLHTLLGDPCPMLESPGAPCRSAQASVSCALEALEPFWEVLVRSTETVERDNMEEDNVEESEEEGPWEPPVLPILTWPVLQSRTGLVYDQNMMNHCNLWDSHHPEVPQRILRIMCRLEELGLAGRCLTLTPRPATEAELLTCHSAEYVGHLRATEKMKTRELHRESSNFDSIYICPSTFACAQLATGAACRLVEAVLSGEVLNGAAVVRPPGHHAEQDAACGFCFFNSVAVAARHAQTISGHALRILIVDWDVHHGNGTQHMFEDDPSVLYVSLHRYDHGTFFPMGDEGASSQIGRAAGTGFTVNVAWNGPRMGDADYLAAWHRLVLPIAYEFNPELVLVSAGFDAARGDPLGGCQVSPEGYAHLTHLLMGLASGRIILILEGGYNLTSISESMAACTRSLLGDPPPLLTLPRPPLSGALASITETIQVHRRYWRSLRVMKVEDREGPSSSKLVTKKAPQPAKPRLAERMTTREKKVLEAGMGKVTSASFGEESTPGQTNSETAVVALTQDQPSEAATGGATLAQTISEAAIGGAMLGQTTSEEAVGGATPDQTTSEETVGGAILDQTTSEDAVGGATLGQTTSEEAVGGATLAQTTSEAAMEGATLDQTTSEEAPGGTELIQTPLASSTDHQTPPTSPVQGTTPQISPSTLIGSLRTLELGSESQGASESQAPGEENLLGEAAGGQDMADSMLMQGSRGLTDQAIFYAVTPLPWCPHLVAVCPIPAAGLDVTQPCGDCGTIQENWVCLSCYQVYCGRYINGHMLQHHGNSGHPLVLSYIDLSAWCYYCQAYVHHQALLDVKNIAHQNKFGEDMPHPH

HDAC1 = HDAC1 (Homo sapiens, UniProt Q13547); assay: ELISA-based HDAC activity assay, HDAC1
recombinant HDAC8 = molecular target: T2, recombinant HDAC8 (Homo sapiens, UniProt Q9BY41); assay: Recombinant HDAC8 inhibition (HDAC-Glo); assay type: biochemical; conditions: for activity at 0.1 µM: 1.0 × 10^−7 M; for activity at 0.2 µM: 2.0 × 10^−7 M; for activity at […]: 2.5 × 10^−8 M; for activity at 0.05 µM: 5.0 × 10^−8 M; for HDAC8 fold selectivity HDAC1: HDAC8 over HDAC1; for HDAC8 fold selectivity HDAC1 / HDAC8 fold selectivity HDAC2 / HDAC8 fold selectivity HDAC3: calculated from IC50 values; for HDAC8 fold selectivity HDAC2: HDAC8 over HDAC2; for HDAC8 fold selectivity HDAC3: HDAC8 over HDAC3; for activity at 0.0125 µM: 1.25 × 10^−8 M; for fold selectivity for HDAC8 over HDAC1, 2, and 3: HDAC8 versus HDAC1, 2, 3
T2 construct: purchased BPS Bioscience
T2 sequence (Q9BY41 1-377): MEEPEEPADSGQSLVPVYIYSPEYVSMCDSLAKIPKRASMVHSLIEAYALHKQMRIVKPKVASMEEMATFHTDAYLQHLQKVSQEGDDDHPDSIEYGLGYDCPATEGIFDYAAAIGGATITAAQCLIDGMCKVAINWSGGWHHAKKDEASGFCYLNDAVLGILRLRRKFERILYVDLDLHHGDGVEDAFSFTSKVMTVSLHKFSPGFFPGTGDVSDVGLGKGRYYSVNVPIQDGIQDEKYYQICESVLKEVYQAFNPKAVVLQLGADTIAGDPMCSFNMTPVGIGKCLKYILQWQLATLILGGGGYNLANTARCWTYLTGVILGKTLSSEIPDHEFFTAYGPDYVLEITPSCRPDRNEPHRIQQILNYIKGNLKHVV
Procedure: Inhibitory activity with HDAC8 was measured using the following procedure. In a half area 96-well white opaque plate, recombinant HDAC8 (75 ng, BPS Bioscience) was incubated in HDAC-Glo™ buffer (39 μL) with inhibitor in DMSO (1 μL), or DMSO alone (1 μL) as a control, for 15 minutes at room temperature. HDAC-Glo™ reagent (10 μL) was added to each reaction and incubated for 30 min at room temperature. Luminescent signal was measured 30 minutes after adding the substrate reagent using a Geniosplus Fluorimeter (Tecan) at optimal gain. To determine IC50, the luminescent signal was first background corrected with the signal from a background control reaction where no HDAC8 enzyme was added.

[1] = read-out: Deacetylase activity (%) HDAC6
[2] = potency (IC50) to HDAC1, 2, and 3, range over HDAC1, 2, and 3
[3] = read-out: Deacetylase activity (%) HDAC1
[4] = read-out: Deacetylase activity (%) HDAC8

Sequence of HDAC1 (Q13547 whole entry): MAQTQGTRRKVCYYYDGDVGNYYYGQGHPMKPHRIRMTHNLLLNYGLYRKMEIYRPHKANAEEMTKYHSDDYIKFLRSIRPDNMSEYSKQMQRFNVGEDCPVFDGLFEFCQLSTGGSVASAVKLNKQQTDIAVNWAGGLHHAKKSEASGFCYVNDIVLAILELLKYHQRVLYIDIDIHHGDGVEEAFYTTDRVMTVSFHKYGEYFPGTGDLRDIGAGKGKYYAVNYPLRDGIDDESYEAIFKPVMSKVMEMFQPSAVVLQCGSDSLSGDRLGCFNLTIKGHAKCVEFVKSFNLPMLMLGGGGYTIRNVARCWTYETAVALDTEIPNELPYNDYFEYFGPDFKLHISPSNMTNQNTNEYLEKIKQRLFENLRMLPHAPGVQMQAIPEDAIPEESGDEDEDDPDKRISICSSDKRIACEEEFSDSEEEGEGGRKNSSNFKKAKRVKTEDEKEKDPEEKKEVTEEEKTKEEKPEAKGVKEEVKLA

IC50 (HDAC6) | HDAC6 fold selectivity HDAC1 (HDAC6) | HDAC6 fold selectivity HDAC2 (HDAC6) | HDAC6 fold selectivity HDAC3 (HDAC6) | activity at 0.05 µM (HDAC6; [1]) | activity at 0.1 µM (HDAC6; [1]) | activity at 0.2 µM (HDAC6; [1]) | activity at 0.4 µM (HDAC6; [1]) | activity at […] (HDAC6; [1]) | IC50 (HDAC1; IC50 values (nM) HDAC1) | IC50 (HDAC1; [2]) | IC50 (recombinant HDAC8) | activity at 0.1 µM (recombinant HDAC8; [4]) | activity at 0.2 µM (recombinant HDAC8; [4]) | activity at […] (recombinant HDAC8; [4]) | activity at 0.05 µM (recombinant HDAC8; [4]) | HDAC8 fold selectivity HDAC1 (recombinant HDAC8) | HDAC8 fold selectivity HDAC2 (recombinant HDAC8) | HDAC8 fold selectivity HDAC3 (recombinant HDAC8) | activity at 10 µM (HDAC1; [3]) | SMILES | also measured
160 ± 10 nM | 28 fold | 31 fold | 38 fold | 74 ± 7% | 61 ± 6% | 43 ± 5% | 33 ± 3% | 80 ± 8% | 4400 nM | 4400 to 6000 nM | 130 ± 3 nM | 55 ± 2% | 39 ± 1% | 83 ± 2% | 73 ± 2% | 34 fold | 38 fold | 46 fold | – | CCC(CCCC(=O)Nc1ccccc1)CCC(=O)NO (racemic) [Compound 1b, 4-ethyl-N^1-hydroxy-N^8-phenyloctanediamide] | activity at 1 µM (HDAC1; [3]): 81 ± 3%; activity at 2 µM (HDAC1; [3]): 68 ± 5%; activity at 4 µM (HDAC1; [3]): 58 ± 1%; activity at 8 µM (HDAC1; [3]): 32 ± 4%; activity at 16 µM (HDAC1; [3]): 19 ± 1%; activity at 0.4 µM (recombinant HDAC8; 4.0 × 10^−7 M, read-out: Deacetylase activity (%) HDAC8): 25 ± 1%
140 ± 10 nM | 250 fold | 270 fold | 210 fold | 75 ± 6% | 56 ± 4% | 42 ± 4% | 27 ± 2% | 77 ± 9% | 35000 nM | 30000 to 38000 nM | 79 ± 3 nM | 42 ± 4% | 27 ± 2% | 78 ± 6% | 63 ± 4% | 440 fold | 480 fold | 380 fold | 83 ± 4% | CCCCCCC(CCCC(=O)Nc1ccccc1)CCC(=O)NO (racemic) [Compound 1d, 4-hexyl-N^1-hydroxy-N^8-phenyloctanediamide] | activity at 1.25 µM (HDAC6; [1]): 21 ± 2%; activity at 1.25 µM (HDAC1; [3]): 97 ± 3%; activity at 20 µM (HDAC1; [3]): 67 ± 4%; activity at 40 µM (HDAC1; [3]): 46 ± 1%; activity at 80 µM (HDAC1; [3]): 26 ± 2%; activity at 160 µM (HDAC1; [3]): 13 ± 1%; activity at 0.0125 µM (recombinant HDAC8; [4]): 92 ± 1%; fold selectivity for HDAC8 over HDAC1, 2, and 3 (recombinant HDAC8): ≥ 380 fold
140 nM | 210 fold | 270 fold | 300 fold | 76 ± 5% | 60 ± 4% | 45 ± 5% | 18 ± 4% | 90 ± 7% | – | – | 57 nM | 34 ± 2% | 21 ± 1% | 73 ± 2% | 51 ± 1% | 510 fold | 670 fold | 740 fold | 75 ± 5% | O=C(CCC(CCCC(=O)Nc1ccccc1)Cc1ccccc1)NO (racemic) [Compound 1f, 4-benzyl-N^1-hydroxy-N^8-phenyloctanediamide] | activity at 5 µM (HDAC6; [1]): 2.9 ± 0.5%; IC50 (HDAC1; potency (IC50) with HDAC1, text, Table 4 value in μM): 29000 nM; activity at 5 µM (HDAC1; [3]): 87 ± 4%; activity at 20 µM (HDAC1; [3]): 58 ± 5%; activity at 40 µM (HDAC1; [3]): 44 ± 2%; activity at 80 µM (HDAC1; [3]): 27 ± 2%; activity at 160 µM (HDAC1; [3]): 16 ± 1%; activity at 0.0125 µM (recombinant HDAC8; [4]): 87 ± 4%; fold selectivity for HDAC8 over HDAC1, 2, and 3 (recombinant HDAC8): ≥ 510 fold
